Consider twelve molecules from patent US20210386721A1, “SUBSTITUTED PHENYLPROPENYL PYRIDINE DERIVATIVES, THEIR PREPARATION AND PHARMACEUTICAL APPLICATIONS” (SHANGHAI HAIYAN PHARMACEUTICAL TECHNOLOGY CO., LTD., priority 2019, published 2021).

The assay has as its target T1, PD-1/PD-L1 (Homo sapiens, UniProt Q9NZQ7).
T1 construct: purchased Cisbio 63ADK000CPDPEB
Put plainly: PD-1/PD-L1 binding assay (HTRF, PPI-HTRF). As to conditions: HTRF PD1/PD-L1 binding assay kit; 10 nM Tag1-PD-L1; 25° C. The protocol:
Assay 1 PD-1/PD-L1 Binding Assay
DMSO is from Sigma, Cat No: D5879; 384-well small volume plate (white) is from Greiner, Cat No: 784075; Anti-PD1 blocking antibody (IC50: 10 nM) is from Cisbio, Cat No: 64CUS000C-1a; Anti-PDL1 blocking antibody (IC50: 0.3 nM) is from Cisbio, Cat No: 64CUS000C-1b; HTRF PD1/PD-L1 binding assay kit is from Cisbio, Cat No: 63ADK000CPDPEB.
1. Prepare the compound to be tested at 2x concentration into 1× reaction buffer containing 4% DMSO;
2. Tag1-PD-L1 protein and Tag2-PD1 protein were prepared in 1× reaction buffer at concentrations of […] and 10 nM, respectively. The final reaction concentration of the experiment was 10 nM Tag1-PD-L1 and 2 nM […];
3. anti-Tag1-Eu3+ antibody is prepared in 1x concentration detection buffer at a ratio of 1:100;
4. anti-Tag2-XL665 antibody is prepared in 1x concentration detection buffer at a ratio of 1:25; Experimental steps
1. 5 μL of compounds to be tested (2×) was added;
2. 2.5 ul Tag1-PD-L1 protein and 2.5 ul Tag2-PD1 protein were added respectively, and the total reaction system is 10 ul, and reacted at 25° C. for 15 minutes;
3. 5 ul anti-Tag1-Eu3+ antibody and 5 ul anti-Tag2-XL665 antibody were added respectively, and reacted at 25° C. for 16 hours;
4. The fluorescence microplate reader HTRF reading program was used to read two readings at 665 nm and 620 nm, the ratio of the two wavelengths was used to judge the activity of the compound, and the IC50 of the compound to be tested is calculated by XLFIT5.0 (IDBS).

Where only a bound is given, the exact number is not on record here.

T1 sequence (Q9NZQ7 19-238 limits assumed): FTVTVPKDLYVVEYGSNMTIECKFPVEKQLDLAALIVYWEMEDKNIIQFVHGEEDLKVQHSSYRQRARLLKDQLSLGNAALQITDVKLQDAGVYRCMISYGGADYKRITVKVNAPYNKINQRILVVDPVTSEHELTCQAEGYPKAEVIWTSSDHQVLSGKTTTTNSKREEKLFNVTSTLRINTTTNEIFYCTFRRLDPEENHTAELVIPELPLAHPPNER

In general, IC50 refers to the concentration that inhibits the measured activity by half. Take `Cc1c(NC(=O)c2ccc(CNCCO)cn2)cccc1-c1ccnc(/C=C/c2ccc3c(c2)CCN(CC(=O)O)C3)c1C#N` [Z-3, (E)-2-(6-(2-(3-cyano-4-(3-(5-(((2-hydroxyethyl)amino)methyl)picolinamido)-2-methylphenyl)pyridin-2-yl)vinyl)-3,4-dihydroisoquinolin-2(1H)-yl)acetic Acid]: the concentration for half-maximal inhibition (IC50) worked out at 9 nM.
Molecule `Cc1cc(/C=C/c2nccc(-c3cccc(NC(=O)c4ccc(CNCCO)cn4)c3C)c2C#N)c(F)cc1CNCCO` [Z-4, (E)-N-(3-(3-cyano-2-(2-fluoro-4-(((2-hydroxyethyl)amino)methyl)-5-methylstyryl)pyridin-4-yl)-2-methylphenyl)-5-(((2-hydroxyethyl)amino)methyl)picolinamide] yielded a half-maximal inhibitory concentration (IC50) of less than 1 nM.
Next, `Cc1cc(/C=C/c2nccc(-c3cccc(NC(=O)c4ccc(CN5CCCC[C@@H]5C(=O)O)cn4)c3C)c2C#N)c(Cl)cc1CN1CC[C@@H](O)C1` [Z-6, (R)-1-((6-((3-(2-((E)-2-chloro-4-(((R)-3-hydroxypyrrolidin-1-yl)methyl)-5-methylstyryl)-3-cyanopyridin-4-yl)-2-methylphenyl)carbamoyl)pyridin-3-yl)methyl)piperidine-2-carboxylic Acid]: 2 nM.
The same measure for `Cc1cc(/C=C/c2nccc(-c3cccc(Nc4nccc5cc(CN6CC[C@@H](O)C6)cnc45)c3C)c2C#N)c(Cl)cc1CN1CCCC[C@H]1C(=O)O` [Z-7, (S)-1-(5-chloro-4-((E)-2-(3-cyano-4-(3-((3-(((R)-3-hydroxypyrrolidin-1-yl)methyl)-1,7-naphthyridin-8-yl)amino)-2-methylphenyl)pyridin-2-yl)vinyl)-2-methylbenzyl)piperidine-2-carboxylic Acid]: 1 nM; for `COc1cc(/C=C/c2cccc(-c3cccc(Nc4nccc5cc(CN6CC[C@@H](O)C6)c(C(F)(F)F)nc45)c3C)c2C)c(C(F)(F)F)cc1CN1CC[C@@H](C(=O)O)C1` [Z-10, (R)-1-(4-((E)-2-(3′-((3-(((R)-3-hydroxypyrrolidin-1-yl)methyl)-2-(trifluoromethyl)-1,7-naphthyridin-8-yl)amino)-2,2′-dimethyl-[1,1′-biphenyl]-3-yl)vinyl)-2-methoxy-5-(trifluoromethyl)benzyl)pyrrolidine-3-carboxylic Acid]: 3 nM.
For `COc1cc(/C=C/c2nccc(-c3cccc(Nc4nccc5cc(CN6CC[C@@H](O)C6)cnc45)c3C)c2C#N)c(C(F)(F)F)cc1CN1CC[C@@H](C(=O)O)C1` [Z-13], the IC50 worked out at 2 nM.
Molecule `COc1cc(/C=C/c2cccc(-c3cccc(Nc4n[nH]c5ccc(CN6CC[C@@H](O)C6)cc45)c3C)c2C)c(C(F)(F)F)cc1CN1CC[C@@H](C(=O)O)C1` [Z-15, (R)-1-(4-((E)-2-(3′-((5-(((R)-3-hydroxypyrrolidin-1-yl)methyl)-1H-indazole-3-yl)amino)-2,2′-dimethyl-[1,1′-biphenyl]-3-yl)vinyl)-2-methoxy-5-(trifluoromethyl)benzyl)pyrrolidine-3-carboxylic Acid] showed a 50% inhibitory concentration (IC50) of 3 nM.
`COc1cc(/C=C/c2cccc(-c3cccc(-c4nc5cc(CN6CC[C@@H](O)C6)ccc5o4)c3C)c2C)c(C(F)(F)F)cc1CN1CC[C@@H](C(=O)O)C1` [Z-16] had an IC50 of 1 nM.
`Cc1cc(/C=C/c2cccc(-c3cccc(-c4nc5cc(CN6CC[C@@H](O)C6)ccc5o4)c3C)c2C)c(C(F)(F)F)cc1CN1CC[C@@H](C(=O)O)C1` [Z-17]: the IC50 came out at 1 nM.
The same measure for `COc1cc(/C=C/c2cccc(-c3cccc(-c4nc5cc(CN6CC[C@@H](O)C6)ccc5o4)c3C)c2C#N)c(C(F)(F)F)cc1CN1CC[C@@H](C(=O)O)C1` [Z-19]: 2 nM; for `COc1cc(/C=C/c2cccc(-c3cccc(-c4nc5cc(CN6CC[C@@H](O)C6)ccc5o4)c3C)c2F)c(C(F)(F)F)cc1CN1CC[C@@H](C(=O)O)C1` [Z-20]: 2 nM; for `COc1cc(/C=C/c2cccc(-c3cccc(-c4nc5cc(CN6CC[C@@H](O)C6)cc(Cl)c5o4)c3C)c2C)c(C(F)(F)F)cc1CN1CC[C@@H](C(=O)O)C1` [Z-22]: 2 nM.
